This passage reports Ki and Release results from ChEMBL document CHEMBL1137925, “SAR development of a selective 5-HT1D antagonist/serotonin reuptake inhibitor lead using rapid parallel synthesis” (Bioorg Med Chem Lett, 2004).

The target of test [1] is T1, Adrenergic receptor alpha-1 (Rattus norvegicus, UniProt P15823+P23944+P43140).
T1 sequence (P15823 whole entry): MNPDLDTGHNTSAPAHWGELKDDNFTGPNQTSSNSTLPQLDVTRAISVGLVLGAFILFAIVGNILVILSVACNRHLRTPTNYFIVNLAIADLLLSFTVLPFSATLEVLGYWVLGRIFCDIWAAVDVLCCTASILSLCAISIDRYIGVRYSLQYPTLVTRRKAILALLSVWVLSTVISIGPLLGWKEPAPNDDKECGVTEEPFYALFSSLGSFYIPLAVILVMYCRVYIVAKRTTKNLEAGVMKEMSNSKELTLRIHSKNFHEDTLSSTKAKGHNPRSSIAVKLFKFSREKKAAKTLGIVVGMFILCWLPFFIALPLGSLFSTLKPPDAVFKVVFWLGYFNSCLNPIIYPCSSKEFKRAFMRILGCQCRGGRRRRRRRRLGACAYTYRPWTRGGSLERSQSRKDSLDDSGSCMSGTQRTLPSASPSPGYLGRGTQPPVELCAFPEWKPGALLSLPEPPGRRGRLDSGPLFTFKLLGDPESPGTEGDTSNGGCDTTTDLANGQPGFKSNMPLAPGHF
T1 sequence (P23944 whole entry): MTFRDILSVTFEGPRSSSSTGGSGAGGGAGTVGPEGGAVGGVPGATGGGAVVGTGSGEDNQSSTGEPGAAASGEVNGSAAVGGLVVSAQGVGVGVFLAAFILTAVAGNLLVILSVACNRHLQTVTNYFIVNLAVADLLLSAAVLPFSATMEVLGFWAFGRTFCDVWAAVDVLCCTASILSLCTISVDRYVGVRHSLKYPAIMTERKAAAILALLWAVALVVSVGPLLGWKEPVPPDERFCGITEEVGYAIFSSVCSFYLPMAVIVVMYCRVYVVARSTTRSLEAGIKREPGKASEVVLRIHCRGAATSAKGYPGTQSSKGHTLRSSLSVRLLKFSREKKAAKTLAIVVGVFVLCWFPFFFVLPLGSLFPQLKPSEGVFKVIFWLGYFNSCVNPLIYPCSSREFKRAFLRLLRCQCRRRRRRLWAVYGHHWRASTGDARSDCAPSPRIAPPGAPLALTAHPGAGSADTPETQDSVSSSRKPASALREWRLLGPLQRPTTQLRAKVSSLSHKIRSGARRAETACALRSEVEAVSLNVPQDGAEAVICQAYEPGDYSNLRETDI
T1 sequence (P43140 whole entry): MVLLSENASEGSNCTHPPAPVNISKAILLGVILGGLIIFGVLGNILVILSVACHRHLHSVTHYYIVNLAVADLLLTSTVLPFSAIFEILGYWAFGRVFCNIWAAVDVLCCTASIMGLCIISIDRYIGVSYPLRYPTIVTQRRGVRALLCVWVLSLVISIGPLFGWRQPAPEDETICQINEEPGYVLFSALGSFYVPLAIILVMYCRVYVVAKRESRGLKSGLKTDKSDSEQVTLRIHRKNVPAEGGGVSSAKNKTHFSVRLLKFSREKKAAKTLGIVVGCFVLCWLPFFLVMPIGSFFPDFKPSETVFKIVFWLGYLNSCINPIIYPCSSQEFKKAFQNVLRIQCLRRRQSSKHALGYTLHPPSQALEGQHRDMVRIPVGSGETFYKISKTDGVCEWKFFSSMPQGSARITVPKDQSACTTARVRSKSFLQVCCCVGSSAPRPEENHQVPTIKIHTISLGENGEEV
The test can be described thus: Binding affinity determined against alpha-1 adrenergic receptor in rat cortex membranes using [3H]prazosin as radioligand. Format: cell membranes.

Test [2] concerns the target 5-hydroxytryptamine receptor 1D (Homo sapiens, UniProt P28221). Kind of test: Binding affinity towards human 5-hydroxytryptamine 1D receptor in L-M(tk-) cells using [3H]GR-125743 as radioligand. Format: cell-based.
Test [3] addresses 5-hydroxytryptamine receptor 1B (Homo sapiens, UniProt P28222). The test can be described thus: Binding affinity towards human 5-hydroxytryptamine 1B receptor in L-M(tk-) cells using [3H]GR-125743 as radioligand. In kind it is cell-based.
Test [4] has as its target Sodium-dependent serotonin transporter (Rattus norvegicus, UniProt P31652). Kind of test: In vitro binding affinity towards serotonin transporter using [3H]citalopram as radioligand in rat cerebral cortex membranes. Format: cell membranes, Membrane.
The target of test [5] is D(2) dopamine receptor (Rattus norvegicus, UniProt P61169). The test can be described thus: Binding affinity determined against dopamine receptor D2 in rat caudate membranes using [3H]- raclopride as radioligand. Format: cell membranes.
Test [6] is filed under the species Cavia porcellus. Kind of test: Ability at 30 uM to potentiate potassium-stimulated [3H]5-HT release from preloaded guinea pig cortical slices. In kind it is functional.

pKi: −log10 of the molar value.

Sequence of 5-hydroxytryptamine receptor 1D (P28221 whole entry): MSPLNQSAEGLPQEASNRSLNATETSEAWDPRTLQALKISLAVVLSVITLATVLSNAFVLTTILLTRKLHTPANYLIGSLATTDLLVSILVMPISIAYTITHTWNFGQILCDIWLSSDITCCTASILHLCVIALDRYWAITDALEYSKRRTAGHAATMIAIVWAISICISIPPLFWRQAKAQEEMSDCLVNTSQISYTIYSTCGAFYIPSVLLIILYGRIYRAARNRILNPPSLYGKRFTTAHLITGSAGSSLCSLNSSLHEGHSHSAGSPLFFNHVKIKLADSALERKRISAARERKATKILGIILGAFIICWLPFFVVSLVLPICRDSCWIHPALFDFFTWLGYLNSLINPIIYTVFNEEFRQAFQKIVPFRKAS
Sequence of Sodium-dependent serotonin transporter (P31652 whole entry): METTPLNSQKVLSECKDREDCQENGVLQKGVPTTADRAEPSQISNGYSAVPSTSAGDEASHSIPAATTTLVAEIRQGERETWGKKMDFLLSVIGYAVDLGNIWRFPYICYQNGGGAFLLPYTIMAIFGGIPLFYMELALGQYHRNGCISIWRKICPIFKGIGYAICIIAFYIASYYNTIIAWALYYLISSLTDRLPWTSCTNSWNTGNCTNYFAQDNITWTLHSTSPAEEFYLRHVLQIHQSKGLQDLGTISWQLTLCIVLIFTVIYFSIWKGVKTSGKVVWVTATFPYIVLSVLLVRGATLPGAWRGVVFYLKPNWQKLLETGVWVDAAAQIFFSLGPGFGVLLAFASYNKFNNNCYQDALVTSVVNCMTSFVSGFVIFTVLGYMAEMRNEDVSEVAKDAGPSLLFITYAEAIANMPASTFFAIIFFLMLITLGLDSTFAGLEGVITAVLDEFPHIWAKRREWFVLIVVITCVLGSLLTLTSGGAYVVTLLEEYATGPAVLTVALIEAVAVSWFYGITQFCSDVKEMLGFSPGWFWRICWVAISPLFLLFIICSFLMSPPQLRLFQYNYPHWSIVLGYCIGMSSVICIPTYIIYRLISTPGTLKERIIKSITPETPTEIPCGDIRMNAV
Sequence of D(2) dopamine receptor (P61169 whole entry): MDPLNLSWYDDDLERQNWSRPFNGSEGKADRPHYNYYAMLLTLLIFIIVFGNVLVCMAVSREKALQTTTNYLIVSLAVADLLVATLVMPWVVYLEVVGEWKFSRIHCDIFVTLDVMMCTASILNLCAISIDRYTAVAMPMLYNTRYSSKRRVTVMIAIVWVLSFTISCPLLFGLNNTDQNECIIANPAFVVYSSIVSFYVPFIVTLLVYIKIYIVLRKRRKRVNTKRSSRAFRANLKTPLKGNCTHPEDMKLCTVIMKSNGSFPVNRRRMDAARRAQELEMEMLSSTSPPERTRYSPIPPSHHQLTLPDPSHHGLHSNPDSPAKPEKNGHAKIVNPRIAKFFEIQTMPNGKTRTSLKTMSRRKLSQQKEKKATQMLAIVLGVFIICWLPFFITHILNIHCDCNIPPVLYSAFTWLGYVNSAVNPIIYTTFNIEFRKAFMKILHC
Sequence of 5-hydroxytryptamine receptor 1B (P28222 whole entry): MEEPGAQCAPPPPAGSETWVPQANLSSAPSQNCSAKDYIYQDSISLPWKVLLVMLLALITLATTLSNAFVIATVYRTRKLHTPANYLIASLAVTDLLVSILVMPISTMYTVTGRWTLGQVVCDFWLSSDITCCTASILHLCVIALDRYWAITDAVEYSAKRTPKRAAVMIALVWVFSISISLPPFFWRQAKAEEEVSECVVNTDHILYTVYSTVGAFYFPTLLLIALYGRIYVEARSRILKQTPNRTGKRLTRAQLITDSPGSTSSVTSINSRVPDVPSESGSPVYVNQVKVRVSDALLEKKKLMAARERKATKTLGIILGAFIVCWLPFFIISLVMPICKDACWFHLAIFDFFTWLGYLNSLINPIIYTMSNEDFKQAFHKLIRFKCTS

Consider `NC(=O)c1ccc2c(c1)CCOC2CCN1CC=C(c2c[nH]c3c(F)c(F)ccc23)CC1` (configuration not stated), for which, in test [1], the Ki was 0.016 µM. In addition, the negative logarithm of the Ki (pKi) in test [2] is 7.24; in test [3], less than 6.00; in test [4], 9.52; in test [5], 8.17.

Regarding `NC(=O)c1ccc2c(c1)CCOC2CCN1CC=C(c2c[nH]c3cc(F)ccc23)CC1` (configuration not stated), in test [6], the Release amounted to 36%. Further, the Ki in test [1] came out at 0.016 µM. Also, the negative logarithm of the Ki (pKi) in test [2] was 7.25; in test [3], 6.55; in test [4] it was 9.96; in test [5] it was 8.33.

In the case of `NC(=O)c1ccc2c(c1)CCOC2CCN1CC=C(c2c[nH]c3c(Cl)c(Cl)ccc23)CC1` (configuration not stated), the pKi was 6.78 in test [2], less than 6.00 in test [3] and 9.55 in test [4].

Turning to `NC(=O)c1ccc2c(c1)CCOC2CCN1CC=C(c2ccc(F)c3ccoc23)CC1` (configuration not stated), the Ki in test [1] was found to be 0.031 µM. The pKi in test [2] is 7.57; in test [4], 8.72; in test [5], 7.28.

Regarding `NC(=O)c1ccc2c(c1)CCOC2CCN1CC=C(c2c[nH]c3c(F)cccc23)CC1` (configuration not stated), in test [1], the Ki is 0.026 µM. The negative-log Ki (pKi) in test [2] was 7.59; in test [3] it was less than 6.00; in test [4], 9.12; in test [5] it was 8.42.

The compound `Cn1nc(C2=CCN(CCC3OCCc4cc(C(N)=O)ccc43)CC2)c2ccc(F)cc21` (configuration not stated) returned a Ki in test [1] of 0.016 µM. For the same compound, the pKi is 7.29 in test [2], less than 6.00 in test [3], 9.27 in test [4] and 6.74 in test [5].

For the compound `NC(=O)c1ccc2c(c1)CCOC2CCN1CC=C(c2cccc3ccccc23)CC1` (configuration not stated), the Release in test [6] turned out to be 11%. Also, in test [1], the Ki turned out to be 0.224 µM. The pKi in test [2] was 8.27; in test [3], 6.82; in test [4], 8.49; in test [5], 6.78.

Take `Cn1cc(C2=CCN(CCC3OCCc4cc(C(N)=O)ccc43)CC2)c2ccc(F)cc21` (configuration not stated): in test [1], the Ki worked out at 0.017 µM. Besides, the pKi is 7.19 in test [2], less than 6.00 in test [3], 9.01 in test [4] and 7.14 in test [5].

In test [1], `NC(=O)c1ccc2c(c1)CCOC2CCN1CCC(c2c[nH]c3cc(F)ccc23)C1` (configuration not stated) came in with a Ki of 0.0012 µM. Also, the pKi was 7.40 in test [2], 7.02 in test [3], 8.68 in test [4] and 7.55 in test [5].

On to `NC(=O)c1ccc2c(c1)CCOC2CCN1CC=C(c2c[nH]c3cc(C(F)(F)F)ccc23)CC1` (configuration not stated), for which, in test [1], the Ki was 0.19 µM. Also, the pKi in test [2] is 6.91; in test [3], less than 6.00; in test [4] it was 9.00; in test [5], 8.07.

On to `NC(=O)c1ccc2c(c1)CCO[C@@H]2CCN1CC=C(c2c[nH]c3c(F)cccc23)CC1`, for which the Ki in test [1] is 0.0017 µM. The pKi in test [2] is 7.60; in test [3], 6.70; in test [4], 9.70; in test [5], 7.32.

Take `NC(=O)c1ccc2c(c1)CCOC2CCN1CC=C(c2coc3cc(F)ccc23)CC1` (configuration not stated): the Ki in test [1] turned out to be 0.0028 µM. Moreover, the pKi in test [2] is 7.55; in test [3] it was 6.81; in test [4], 9.54; in test [5], 7.68.

For `NC(=O)c1ccc2c(c1)CCOC2CCN1CCN(c2c[nH]c3cc(F)ccc23)CC1` (configuration not stated), the inhibitory constant (Ki) in test [1] was found to be 0.0058 µM. Further, the negative logarithm of the Ki (pKi) was 7.13 in test [2], 6.51 in test [3], 7.72 in test [4] and 8.15 in test [5].

In test [1], `N#Cc1cccc2c(C3=CCN(CCC4OCCc5cc(C(N)=O)ccc54)CC3)c[nH]c12` (configuration not stated) had a Ki of 0.134 µM. Besides, the pKi in test [2] was 6.89; in test [3], less than 6.00; in test [4] it was 8.68; in test [5], 7.82.

In test [1], `NC(=O)c1ccc2c(c1)CCOC2CCN1CC=C(c2csc3cc(F)ccc23)CC1` (configuration not stated) registered a Ki of 0.017 µM. Besides, the pKi is 7.70 in test [2], 6.73 in test [3], 9.00 in test [4] and 8.42 in test [5].

For the compound `NC(=O)c1ccc2c(c1)CCOC2CCN1CCC(c2nsc3cc(F)ccc23)CC1` (configuration not stated), the pKi in test [2] is 7.40; in test [3] it was 6.70; in test [4], 7.28.

For `NC(=O)c1ccc2c(c1)CCOC2CCN1CC=C(c2c[nH]c3cc(Cl)ccc23)CC1` (configuration not stated), the pKi is 6.84 in test [2], less than 6.00 in test [3] and 9.42 in test [4].

With `NC(=O)c1ccc2c(c1)CCOC2CCN1CC=C(c2ccc3cc(F)ccc3c2)CC1` (configuration not stated), the Ki in test [1] amounted to 0.036 µM. Also, the pKi in test [2] was 7.15; in test [3], less than 6.00; in test [4] it was 8.66; in test [5], 6.31.

Regarding `NC(=O)c1ccc2c(c1)CCO[C@H]2CCN1CC=C(c2c[nH]c3c(F)cccc23)CC1`, the Ki in test [1] is 0.0028 µM. Also, the pKi in test [2] was 7.82; in test [3] it was 6.41; in test [4], 9.52; in test [5], 8.15.

`NC(=O)c1ccc2c(c1)CCOC2CCN1CCC(c2cccc3ccccc23)CC1` (configuration not stated): in test [6], the Release was found to be 52%. Besides, the Ki in test [1] came out at 0.03 µM. Moreover, the pKi in test [2] is 7.85; in test [3] it was 7.14; in test [4], 7.82; in test [5], 7.30.

Consider `NC(=O)c1ccc2c(c1)CCOC2CCN1CC=C(c2cccc3ccc(F)cc23)CC1` (configuration not stated), for which the Ki in test [1] amounted to 0.202 µM. Besides, the pKi in test [2] was 7.59; in test [3] it was 6.68; in test [4], 7.89; in test [5], 7.06.

The compound `NC(=O)c1ccc2c(c1)CCOC2CCN1CC=C(c2[nH]nc3cc(F)ccc23)CC1` (configuration not stated) showed a Ki in test [1] of 0.0021 µM. Also, the pKi is 7.62 in test [2], 6.68 in test [3], 9.30 in test [4] and 7.48 in test [5].

Consider `NC(=O)c1ccc2c(c1)CCOC2CCN1CC=C(c2noc3cc(F)ccc23)CC1` (configuration not stated), for which, in test [1], the Ki was 0.003 µM. The pKi in test [2] was 7.20; in test [3] it was 6.81; in test [4] it was 8.10; in test [5], 7.43.

`NC(=O)c1ccc2c(c1)CCOC2CCN1CCC(c2c[nH]c3cc(F)ccc23)CC1` (configuration not stated) returned a Ki in test [1] of 0.012 µM. The pKi is 8.08 in test [2], 6.88 in test [3], 8.70 in test [4] and 7.72 in test [5].

In test [1], `NC(=O)c1ccc2c(c1)CCOC2CCN1CC=C(c2c[nH]c3ccc(F)cc23)CC1` (configuration not stated) showed a Ki of 0.101 µM. In addition, the pKi in test [2] was 6.89; in test [3] it was less than 6.00; in test [4] it was 8.80; in test [5], 8.68.

On to `COc1ccc2[nH]cc(C3=CCN(CCC4OCCc5cc(C(N)=O)ccc54)CC3)c2c1` (configuration not stated), for which the Release in test [6] is recorded as 42%. This compound also yielded a Ki in test [1] of 0.075 µM. The pKi in test [2] was 7.51; in test [3] it was 6.50; in test [4] it was 8.46; in test [5], 7.59.

In test [1], `C[C@H]1CC(c2c[nH]c3cc(F)ccc23)CCN1CCC1OCCc2cc(C(N)=O)ccc21` (some centres not stated) showed a Ki of 0.02 µM. The pKi was 7.55 in test [2], less than 6.00 in test [3], 9.11 in test [4] and 7.07 in test [5].
